Earlier results, collected in patent publication US20260373135A1, “Methods of Treatment with Tradipitant” (Vanda Pharmaceuticals Inc., priority 2022, published 2026).

How the values were obtained:
CYP3A4 [1] = target: T1, CYP3A4 (Homo sapiens, UniProt P08684); conditions: renal transplant patients; cited from earlier work
CYP3A4 [2] = target: T1, CYP3A4; conditions: human liver microsomes in vitro; cited from earlier work
CYP3A4 [3] = target: T1, CYP3A4; conditions: breast cancer patients; n=16 *22, n=116 wt; cited from earlier work

T1 sequence (P08684 whole entry): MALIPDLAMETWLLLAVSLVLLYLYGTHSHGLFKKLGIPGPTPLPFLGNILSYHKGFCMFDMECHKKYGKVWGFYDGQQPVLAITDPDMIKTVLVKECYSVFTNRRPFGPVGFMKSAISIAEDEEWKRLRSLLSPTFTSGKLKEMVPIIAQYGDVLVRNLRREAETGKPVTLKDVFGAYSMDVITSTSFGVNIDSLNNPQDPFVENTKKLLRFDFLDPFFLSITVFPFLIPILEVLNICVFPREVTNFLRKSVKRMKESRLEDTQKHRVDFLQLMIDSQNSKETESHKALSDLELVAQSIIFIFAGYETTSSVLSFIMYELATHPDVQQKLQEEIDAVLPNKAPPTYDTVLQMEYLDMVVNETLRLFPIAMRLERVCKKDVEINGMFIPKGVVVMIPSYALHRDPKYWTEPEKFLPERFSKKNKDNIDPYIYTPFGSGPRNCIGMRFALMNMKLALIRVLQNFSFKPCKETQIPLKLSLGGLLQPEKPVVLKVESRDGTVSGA

Row | SMILES | clearance in CYP3A4*22 carriers (CYP3A4 [1]) | also measured
1 | C=CC[C@@H]1/C=C(\C)C[C@H](C)C[C@H](OC)[C@H]2O[C@@](O)(C(=O)C(=O)N3CCCC[C@H]3C(=O)O[C@H](/C(C)=C/[C@@H]3CC[C@@H](O)[C@H](OC)C3)[C@H](C)[C@@H](O)CC1=O)[C@H](C)C[C@@H]2OC [tacrolimus] | reduced | –
2 | CO[C@H]1C[C@@H]2CC[C@@H](C)[C@@](O)(O2)C(=O)C(=O)N2CCCC[C@H]2C(=O)O[C@H]([C@H](C)C[C@@H]2CC[C@@H](OCCO)[C@H](OC)C2)CC(=O)[C@H](C)/C=C(\C)[C@@H](O)[C@@H](OC)C(=O)[C@H](C)C[C@H](C)/C=C/C=C/C=C/1C [everolimus] | lower clearance | –
3 | CO[C@H]1C[C@@H]2CC[C@@H](C)[C@@](O)(O2)C(=O)C(=O)N2CCCC[C@H]2C(=O)O[C@H]([C@H](C)C[C@@H]2CC[C@@H](O)[C@H](OC)C2)CC(=O)[C@H](C)/C=C(\C)[C@@H](O)[C@@H](OC)C(=O)[C@H](C)C[C@H](C)/C=C/C=C/C=C/1C [sirolimus] | – | metabolic rate with CYP3A4*22 (CYP3A4 [2]): lower
4 | CC/C(=C(\c1ccc(O)cc1)c1ccc(OCCNC)cc1)c1ccccc1 [Endoxifen] | – | blood concentrations in CYP3A4*22 carriers vs *1/*1 (CYP3A4 [3]): increased
